Reference: US20080153896A1, “Polymorphic Forms of an HMG-CoA Reductase Inhibitor and Uses Thereof” (priority 2006, published 2008)

Tests used:
[1] = tested on: NRK-49F (Fibroblast) and L6 (Myoblast); test: Inhibition of cholesterol synthesis in extra hepatic cells/cell lines
cholesterol synthesis = test: Inhibition of cholesterol synthesis in an in vivo rat model; details: vs atorvastatin
[2] = Intrinsic clearance in human liver microsomes; details: vs atorvastatin
[3] = molecular target: T1, 3-hydroxy-3-methylglutaryl-coenzyme A (HMG-CoA) reductase (Homo sapiens, UniProt P04035); test: HMG-CoA reductase inhibition, potency compared with atorvastatin; format: biochemical; details: vs atorvastatin
T1 sequence (P04035 1-888): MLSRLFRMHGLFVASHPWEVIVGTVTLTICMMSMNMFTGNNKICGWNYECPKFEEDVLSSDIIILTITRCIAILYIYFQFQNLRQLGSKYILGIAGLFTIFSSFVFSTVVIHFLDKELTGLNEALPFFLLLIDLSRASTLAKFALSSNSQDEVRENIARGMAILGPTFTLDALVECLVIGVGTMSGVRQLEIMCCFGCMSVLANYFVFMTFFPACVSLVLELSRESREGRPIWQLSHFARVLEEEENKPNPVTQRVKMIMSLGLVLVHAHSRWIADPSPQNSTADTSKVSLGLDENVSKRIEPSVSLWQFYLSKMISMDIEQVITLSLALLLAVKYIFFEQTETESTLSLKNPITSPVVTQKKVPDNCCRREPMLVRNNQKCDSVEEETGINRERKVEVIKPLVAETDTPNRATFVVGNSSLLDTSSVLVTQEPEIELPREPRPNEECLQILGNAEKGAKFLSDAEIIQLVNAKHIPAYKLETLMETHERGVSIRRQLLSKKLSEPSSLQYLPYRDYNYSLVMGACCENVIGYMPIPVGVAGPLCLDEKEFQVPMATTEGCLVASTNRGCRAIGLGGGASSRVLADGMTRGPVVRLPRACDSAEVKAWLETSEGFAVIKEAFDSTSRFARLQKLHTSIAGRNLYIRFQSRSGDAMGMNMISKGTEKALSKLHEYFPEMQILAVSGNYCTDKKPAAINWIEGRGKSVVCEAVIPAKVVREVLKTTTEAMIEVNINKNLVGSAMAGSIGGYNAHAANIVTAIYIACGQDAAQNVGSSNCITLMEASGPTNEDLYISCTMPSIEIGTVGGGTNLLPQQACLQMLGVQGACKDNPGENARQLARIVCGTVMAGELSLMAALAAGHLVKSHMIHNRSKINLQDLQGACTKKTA

rat primary hepatocytes = test: Inhibition of cholesterol synthesis in rat primary hepatocytes; format: cell-based; details: vs atorvastatin
[4] = molecular target: CYP3A4 (cytochrome P450 3A4) (Homo sapiens, UniProt P08684); test: Substrate for metabolic enzyme CYP3A4
Chain of CYP3A4 (cytochrome P450 3A4) (P08684 whole entry): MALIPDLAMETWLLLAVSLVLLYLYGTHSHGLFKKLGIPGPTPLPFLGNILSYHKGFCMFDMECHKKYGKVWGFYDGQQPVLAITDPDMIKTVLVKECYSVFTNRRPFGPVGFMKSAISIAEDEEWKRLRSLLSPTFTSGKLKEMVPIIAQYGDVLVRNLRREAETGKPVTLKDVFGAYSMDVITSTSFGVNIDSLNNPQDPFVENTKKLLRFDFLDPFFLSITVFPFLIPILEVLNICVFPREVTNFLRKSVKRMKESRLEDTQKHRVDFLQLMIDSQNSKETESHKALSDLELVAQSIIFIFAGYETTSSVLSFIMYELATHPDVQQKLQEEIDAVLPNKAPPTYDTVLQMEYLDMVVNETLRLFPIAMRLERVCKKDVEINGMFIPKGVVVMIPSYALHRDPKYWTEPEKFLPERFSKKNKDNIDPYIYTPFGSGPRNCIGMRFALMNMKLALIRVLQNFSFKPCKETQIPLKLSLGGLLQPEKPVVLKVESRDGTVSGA

## (3R,5R)-7-[2-(4-fluorophenyl)-5-isopropyl-3-phenyl-4-[(4-hydroxymethylphenylamino)carbonyl]-pyrrol-1-yl]-3,5-dihydroxy-heptanoic acid hemi calcium salt [compound of Formula I]
[1]; NRK-49F and L6, vs atorvastatin
  selectivity, inhibition of cholesterol synthesis in rat primary hepatocytes over extra hepatic cells/cell lines: greater
[1]; vs atorvastatin
  hepatoselectivity: better hepatoselectivity
Cholesterol synthesis
  potency in inhibiting cholesterol synthesis: more potent than atorvastatin
[2]
  intrinsic clearance: significantly less than atorvastatin
[3]
  potency relative to atorvastatin: equipotent to atorvastatin
Rat primary hepatocytes
  potency in the inhibition of cholesterol synthesis: greater potency
[4]
  substrate for the metabolic enzyme CYP3A4: not a major substrate
